In brackets after ≈: the same amount, converted by molar mass. Where two headings read alike, the source gives them in different places.

Data set [1] has as its system Pseudomonas aeruginosa (i.e., Strain 4N3422). Nature of the data set: Minimum inhibitory concentration against Pseudomonas aeruginosa Strain 4N3422. It is filed as cell-based. The text has this:
The concentration of antibiotic utilized in the compositions of the present invention will vary depending on the intended use of the compositions (i.e., sterilization of the surgical field or prevention of post-surgical infections), and the relative antimicrobial activity of the specific antibiotic selected. The antimicrobial activity of antibiotics is generally expressed as the minimum concentration required to inhibit the growth of a specified pathogen. The concentration is also referred to as the “minimum inhibitory concentration” or “MIC”. The term “MIC90” refers to the minimum concentration of antibiotic required to inhibit the growth of ninety percent (90%) of a population of multiple strains of a microorganism. The concentration of an antibiotic required to totally kill a specified population of bacteria or other pathogens is referred to as the “minimum bactericidal concentration” or “MBC”. The minimum inhibitory concentrations of some of the preferred antibiotics of the present invention, relative to a specific strain of Pseudomonas aeruginosa (i.e., Strain 4N3422), are presented in the following table: […]

Another data set deals with Strep. pneumoniae. Nature of the data set: MIC90 against Strep. pneumoniae. It is filed as cell-based. The text has this: (§1) The concentration of antibiotic utilized in the compositions of the present invention will vary depending on the intended use of the compositions (i.e., sterilization of the surgical field or prevention of post-surgical infections), and the relative antimicrobial activity of the specific antibiotic selected. The antimicrobial activity of antibiotics is generally expressed as the minimum concentration required to inhibit the growth of a specified pathogen. The concentration is also referred to as the “minimum inhibitory concentration” or “MIC”. The term “MIC90” refers to the minimum concentration of antibiotic required to inhibit the growth of ninety percent (90%) of a population of multiple strains of a microorganism. The concentration of an antibiotic required to totally kill a specified population of bacteria or other pathogens is referred to as the “minimum bactericidal concentration” or “MBC”. The activity of antibiotics against Pseudomonas aeruginosa is particularly important in the present invention, because ophthalmic infections involving Pseudomonas aeruginosa represent an extremely serious condition which may ultimately result in the loss of the affected eye.

The next data set has as its system Staph. epidermidis. Put plainly: MIC90 against Staph. epidermidis. It counts as cell-based.
Excerpt: as §1

Another data set concerns P. aeruginosa. Nature of the data set: MIC90 against multiple strains of P. aeruginosa. It is filed as cell-based.
Excerpt: as §1

A short description of data set [2]: Ocular tissue drug concentration after topical dosing of rabbit eyes (HPLC). It counts as in vivo. The conditions noted are these: New Zealand albino, 30 microliters, normal eyes, after 30 minutes. How it is done:
The following formulations were tested: The route of administration was topical. The rabbits received 30 microliters of either the gel or solution formulations in both eyes. At the end of the study, the aqueous humor and cornea were collected and assayed by high performance liquid chromatography to determine the amount of drug present.

The subject of the next data set is Hemo. influenzae. Put plainly: MIC90 against Hemo. influenzae. It is filed as cell-based.
Excerpt: as §1

For data set [3] the following is noted: humans, one hour after administration, cited from earlier work.
For the next data set, the system named is Staph. aureus. Put plainly: MIC90 against multiple strains of Staph. aureus. It is filed as cell-based.
Excerpt: as §1

The conditions of data set [4]: rabbits, subconjunctival injection; cited from earlier work.
The mark [5] stands for this setting: Streptococcus pneumoniae, read-out: MIC 90.
Setting [6] is: Staphylococcus epidermidis, read-out: MIC 90.
[7] abbreviates: Pseudomonas aeruginosa, read-out: MIC 90.
Setting [8] is: Haemophilus influenzae, read-out: MIC 90.
[9] abbreviates: Staphylococcus aureus, read-out: MIC 90.

By MIC is commonly meant the least concentration at which growth counts as inhibited. For the compound `NCC[C@H](O)C(=O)N[C@@H]1C[C@H](N)[C@@H](O[C@H]2O[C@H](CN)[C@@H](O)[C@H](O)[C@H]2O)[C@H](O)[C@H]1O[C@H]1O[C@H](CO)[C@@H](O)[C@H](N)[C@H]1O` [Amikacin], in data set [1] (read-out: MIC), the MIC is 8 mg/L (≈ 13.7 µM).
For the compound `CO/N=C(\C(=O)N[C@@H]1C(=O)N2C(C(=O)O)=C(COC(C)=O)CS[C@H]12)c1csc(N)n1` [Cefotaxime], the MIC in [1] (read-out: MIC) was found to be 32 mg/L (≈ 70.3 µM).
Turning to `CO[C@@]1(NC(=O)Cc2cccs2)C(=O)N2C(C(=O)O)=C(COC(N)=O)CS[C@@H]21` [Cefoxitin], in [1] (read-out: MIC), the minimal inhibitory concentration (MIC) was over 32 mg/L.
On to `CC(C)(O/N=C(\C(=O)N[C@@H]1C(=O)N2C(C(=O)[O-])=C(C[n+]3ccccc3)CS[C@H]12)c1csc(N)n1)C(=O)O` [Ceftazidime], for which the MIC in data set [1] (read-out: MIC) is 1 mg/L (≈ 1.83 µM).
Regarding `O=C(O)c1cn(C2CC2)c2cc(N3CCNCC3)c(F)cc2c1=O` [Ciprofloxacin], the MIC90 with Strep. pneumoniae (setting [5]) is 2 mg/L (≈ 6.04 µM); in the data set with Staph. epidermidis (setting [6]), 0.4 mg/L (≈ 1.21 µM); with P. aeruginosa (setting [7]), 0.5 mg/L (≈ 1.51 µM); in the data set on Hemo. influenzae (setting [8]), 0.015 mg/L (≈ 0.0453 µM); with Staph. aureus (setting [9]), 0.5 mg/L (≈ 1.51 µM). Moreover, in [1] (read-out: MIC), the minimum inhibitory concentration (MIC) is under 0.125 mg/L. Moreover, the concentration at 30 min stood at 280 ng/g in data set [2] (aqueous humor, read-out: drug levels in aqueous humor) and 10600 ng/g in data set [2] (cornea, read-out: drug levels in cornea). Moreover, the “maximum aqueous humor concentration” value in [3] (IV injection (200 mg)) is 0.16 µg/mL; in [3] (oral dosage (1 g)) it was 0.33 µg/mL.
For the compound `C[C@@H](O)[C@H]1C(=O)N2C(C(=O)O)=C(SCCN=CN)C[C@H]12` [Imipenem], the MIC in [1] (read-out: MIC) turned out to be 1 mg/L (≈ 3.34 µM).
On to `CCn1cc(C(=O)O)c(=O)c2cc(F)c(N3CCNCC3)cc21` [Norfloxacin], for which, in [1] (read-out: MIC), the MIC was under 0.5 mg/L.
Still for that read-out and setting: for `CCN1CCN(C(=O)N[C@@H](C(=O)N[C@@H]2C(=O)N3[C@@H]2SC(C)(C)[C@@H]3C(=O)O)c2ccccc2)C(=O)C1=O` [Piperacillin] the value was under 8 mg/L.
In the case of `CC1(C)S[C@@H]2[C@H](NC(=O)[C@H](C(=O)O)c3ccsc3)C(=O)N2[C@H]1C(=O)O` [Ticarcillin], in [1] (read-out: MIC), the MIC was determined as 32 mg/L (≈ 83.2 µM).
Take `NC[C@H]1O[C@H](O[C@H]2[C@H](O)[C@@H](O[C@H]3O[C@H](CO)[C@@H](O)[C@H](N)[C@H]3O)[C@H](N)C[C@@H]2N)[C@H](N)C[C@@H]1O` [Tobramycin]: the MIC90 in the data set with Strep. pneumoniae (setting [5]) was determined as 34.5 mg/L (≈ 73.8 µM); in the data set on Staph. epidermidis (setting [6]), 56 mg/L (≈ 120 µM); in the data set on P. aeruginosa (setting [7]), 20 mg/L (≈ 42.8 µM); in the data set with Hemo. influenzae (setting [8]), 13.4 mg/L (≈ 28.7 µM); in the data set with Staph. aureus (setting [9]), 6.3 mg/L (≈ 13.5 µM). In addition, the MIC in [1] (read-out: MIC) is over 8 mg/L.
With Gentamicin, the “MIC90” value with Strep. pneumoniae was 50.0 mg/L; against Staph. epidermidis it was 12.5 mg/L; in the data set with P. aeruginosa it was 8.0 mg/L; in the data set with Hemo. influenzae, 0.8 mg/L; in the data set with Staph. aureus it was 12.5 mg/L. The compound further had an MIC in data set [1] of over 8 mg/L. In data set [4], the “maximum concentration attained in the aqueous humor” value is 8.8 µg/g.

The record behind these values is US6630135B1, “Use of sustained release antibiotic compositions in ophthalmic surgical procedures” (Alcon Laboratories, Inc., priority 1993, dated 2003).
